Molecular target: human NaV 1.7 (Homo sapiens, UniProt Q15858)
Assay: E-VIPR optical membrane potential assay with electrical stimulation
Assay type: cell-based
Conditions: sodium channel inhibition; read-out: Binned Activity Data (IC50)
How it was run: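 Membrane-potential read-out: background-subtracted 460 nm/580 nm ratio during a 9 s current-controlled stimulus, 400 Hz scan. Before stimulation, NaV1.7-HEK cells carried coumarin/oxonol dye and compound (final DMSO 0.625%) for 20–35 min at room temperature; tetracaine 125 μM served as positive control.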

Chain of human NaV 1.7 (Q15858 whole entry): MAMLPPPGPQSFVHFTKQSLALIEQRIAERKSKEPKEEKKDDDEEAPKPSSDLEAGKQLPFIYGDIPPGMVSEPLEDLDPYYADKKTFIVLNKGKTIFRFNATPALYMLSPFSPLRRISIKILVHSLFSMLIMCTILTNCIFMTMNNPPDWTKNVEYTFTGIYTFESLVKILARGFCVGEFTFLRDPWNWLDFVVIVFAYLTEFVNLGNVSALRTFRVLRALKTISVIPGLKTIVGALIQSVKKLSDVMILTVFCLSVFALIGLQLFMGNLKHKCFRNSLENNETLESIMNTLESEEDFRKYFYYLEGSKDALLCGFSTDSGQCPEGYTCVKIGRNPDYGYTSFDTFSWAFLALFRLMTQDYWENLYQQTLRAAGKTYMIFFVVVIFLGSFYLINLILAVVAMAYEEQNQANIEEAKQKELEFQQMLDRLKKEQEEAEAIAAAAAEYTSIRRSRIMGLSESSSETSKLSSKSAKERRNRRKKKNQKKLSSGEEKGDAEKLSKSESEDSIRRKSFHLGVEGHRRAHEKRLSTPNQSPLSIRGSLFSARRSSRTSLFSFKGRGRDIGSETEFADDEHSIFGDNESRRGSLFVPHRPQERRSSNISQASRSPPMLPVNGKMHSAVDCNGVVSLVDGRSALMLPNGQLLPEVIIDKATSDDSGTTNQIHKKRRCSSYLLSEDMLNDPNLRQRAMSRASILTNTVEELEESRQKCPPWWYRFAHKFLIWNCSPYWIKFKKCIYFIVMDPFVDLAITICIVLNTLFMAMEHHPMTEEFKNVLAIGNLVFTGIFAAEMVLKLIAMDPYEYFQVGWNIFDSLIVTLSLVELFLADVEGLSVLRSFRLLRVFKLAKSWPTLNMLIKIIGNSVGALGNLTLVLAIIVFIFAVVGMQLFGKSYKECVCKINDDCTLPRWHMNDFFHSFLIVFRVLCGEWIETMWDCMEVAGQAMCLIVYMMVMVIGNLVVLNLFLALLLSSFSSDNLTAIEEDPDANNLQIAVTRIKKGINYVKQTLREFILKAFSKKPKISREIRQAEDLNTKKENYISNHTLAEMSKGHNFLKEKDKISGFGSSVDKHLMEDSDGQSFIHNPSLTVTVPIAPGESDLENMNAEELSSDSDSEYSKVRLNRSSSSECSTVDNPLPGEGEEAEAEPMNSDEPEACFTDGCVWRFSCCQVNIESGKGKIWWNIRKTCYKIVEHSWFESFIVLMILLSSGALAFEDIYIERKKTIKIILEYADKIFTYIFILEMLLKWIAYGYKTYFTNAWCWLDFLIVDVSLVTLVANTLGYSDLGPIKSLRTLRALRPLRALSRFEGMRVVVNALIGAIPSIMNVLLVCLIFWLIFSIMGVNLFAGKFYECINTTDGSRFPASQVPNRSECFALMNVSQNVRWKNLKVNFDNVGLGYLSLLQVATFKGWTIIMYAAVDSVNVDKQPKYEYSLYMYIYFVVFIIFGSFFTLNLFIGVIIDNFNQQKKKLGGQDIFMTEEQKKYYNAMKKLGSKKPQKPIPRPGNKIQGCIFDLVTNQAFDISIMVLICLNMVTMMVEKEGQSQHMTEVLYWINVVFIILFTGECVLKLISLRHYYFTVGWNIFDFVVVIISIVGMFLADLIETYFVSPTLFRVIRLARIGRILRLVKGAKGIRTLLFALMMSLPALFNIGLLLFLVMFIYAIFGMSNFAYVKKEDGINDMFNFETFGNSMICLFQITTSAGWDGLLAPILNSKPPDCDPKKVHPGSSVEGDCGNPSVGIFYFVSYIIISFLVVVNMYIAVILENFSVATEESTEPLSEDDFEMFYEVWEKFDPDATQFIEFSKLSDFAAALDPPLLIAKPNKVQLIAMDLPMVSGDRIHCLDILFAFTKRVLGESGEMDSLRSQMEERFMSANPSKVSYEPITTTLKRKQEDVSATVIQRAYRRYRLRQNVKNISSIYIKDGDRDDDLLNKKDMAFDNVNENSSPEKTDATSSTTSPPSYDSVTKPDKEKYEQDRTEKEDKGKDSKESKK

Row | IC50 [nM] | Compound
1 | ≤ 2000 | Cn1ncc2c1-c1ccc(Cl)cc1OC21CCN(C(=O)c2ccccc2OC(F)(F)F)CC1 [Compound 518]
2 | ≤ 2000 | COc1cccc(F)c1C(=O)N1CCC2(CC1)Oc1ccccc1-n1c(C#N)ccc12 [Compound 519]
3 | ≤ 2000 | CCNS(=O)(=O)c1ccc(C(=O)N2CCC3(CC2)Oc2ccccc2-c2c3cnn2C)cc1 [Compound 521]
4 | ≤ 2000 | Cc1ccc2c(c1)OC1(CCN(C(=O)c3ccc(S(C)(=O)=O)c(C)c3)CC1)c1ccc(C#N)n1-2 [Compound 522]
5 | ≤ 2000 | CNS(=O)(=O)c1ccc(C(=O)N2CCC3(CC2)Oc2ccccc2-c2nn(C)cc23)cc1C [Compound 523]
6 | ≤ 2000 | Cn1ncc2c1-c1ccccc1OC21CCN(C(=O)c2ccc3nc(N)sc3c2)CC1 [Compound 524]
7 | ≤ 2000 | Cc1cc(C(=O)N2CCC3(CC2)Oc2ccccc2-c2ncn(C)c23)ccc1OC(C)C [Compound 525]
8 | ≤ 2000 | CCn1ncc2c1-c1ccccc1OC21CCN(C(=O)c2cccc(F)c2OC(F)F)CC1 [Compound 528]
9 | ≤ 2000 | COc1cc(C(=O)N2CCC3(CC2)Oc2cc(Cl)ccc2-n2cccc23)ccc1C(C)(C)C [Compound 529]
10 | ≤ 2000 | N#Cc1ccc2n1-c1ccccc1OC21CCN(C(=O)c2ccc(S(=O)(=O)C(F)F)cc2)CC1 [Compound 530]
11 | ≤ 2000 | CC(C)Oc1ccc(C(=O)N2CCC3(CC2)Oc2ccccc2-n2c(C(F)(F)F)ccc23)cc1CO [Compound 531]
12 | ≤ 2000 | COCCOc1cc(F)c(C(=O)N2CCC3(CC2)Oc2ccccc2-n2cccc23)cc1OC [Compound 532]
13 | ≤ 2000 | COc1cc(C(=O)N2CCC3(CC2)Oc2cccnc2-n2cccc23)ccc1O[C@@H]1CCOC1 [Compound 533]
14 | ≤ 2000 | COc1cc(OC)cc(C(=O)N2CCC3(CC2)Oc2cc(Cl)ccc2-n2cccc23)c1 [Compound 534]
15 | ≤ 2000 | O=C(c1cccnc1N1CCCC1)N1CCC2(CC1)Oc1ccccc1-n1c(C(F)(F)F)ccc12 [Compound 535]
16 | ≤ 2000 | CC(C)(C)c1ccc(C(=O)N2CCC3(CC2)Oc2cc(F)ccc2-n2cccc23)cc1C#N [Compound 536]
17 | ≤ 2000 | COc1cc(C(=O)N2CCC3(CC2)Oc2ccccc2-c2c3cnn2C)ccc1C(C)(C)O [Compound 537]
18 | ≤ 2000 | Cc1cc(C(=O)N2CCC3(CC2)Oc2ccccc2-n2cccc23)ccc1OC(C)(C)C [Compound 538]
19 | 2000 to 5000 | N#Cc1ccc2n1-c1ccccc1OC21CCN(C(=O)c2ccc(S(=O)(=O)NCCCO)cc2)CC1 [Compound 540]
20 | ≤ 2000 | O=C(c1ccc(S(=O)(=O)NC2CC2)cc1)N1CCC2(CC1)Oc1ccccc1-n1c(C(F)(F)F)ccc12 [Compound 541]
21 | 2000 to 5000 | COc1ccc(C(=O)N2CCC3(CC2)Oc2ccccc2-n2cccc23)cc1S(N)(=O)=O [Compound 542]
22 | ≤ 2000 | Cc1cc(C(=O)N2CCC3(CC2)Oc2ccccc2-c2c3cnn2C)ccc1S(=O)(=O)C(C)C [Compound 543]
23 | ≤ 2000 | COc1c(F)cccc1C(=O)N1CCC2(CC1)Oc1ccccc1-c1c2cnn1C(C)C [Compound 544]
24 | ≤ 2000 | CCc1ccccc1C(=O)N1CCC2(CC1)Oc1ccccc1-c1c2cnn1C [Compound 546]
25 | ≤ 2000 | Cc1cc(C(=O)N2CCC3(CC2)Oc2cc(Cl)ccc2-n2cccc23)ccc1OCC1CCCO1 (stereo not drawn) [Compound 547]
26 | ≤ 2000 | Cc1cc(C#N)n2c1C1(CCN(C(=O)c3ccc(S(=O)(=O)C(C)C)cc3)CC1)Oc1ccccc1-2 [Compound 549]
27 | 2000 to 5000 | Cn1ncc2c1-c1ccccc1OC21CCN(C(=O)c2cnn(-c3ccccc3)c2C(F)(F)F)CC1 [Compound 550]
28 | ≤ 2000 | O=C(c1ccnc(N2CCCCC2)c1)N1CCC2(CC1)Oc1ccccc1-n1cccc12 [Compound 551]
29 | ≤ 2000 | COCCn1ccc(C(=O)N2CCC3(CC2)Oc2cc(Cl)ccc2-n2cccc23)cc1=O [Compound 552]
30 | 2000 to 5000 | COc1cc(C(=O)N2CCC3(CC2)Oc2ccccc2-c2[nH]ncc23)ccc1OC(C)(C)C [Compound 553]
